For 27 molecules, IC50 and IC90 results are on record in ChEMBL document CHEMBL4483862, “Open-source discovery of chemical leads for next-generation chemoprotective antimalarials” (2018).

In this assay the test system is Plasmodium berghei. Put plainly: Luciferase/luciferin-expressing antifolate-resistant parasites were used to infect a culture of HepG2 cells that were pre-incubated with compounds. Infected hepatocytes emit light due to the luciferase reaction. Assay results are presented as the percent inhibition of light emission compared to control. […]. The format is functional. The settings on record: sporozoite; for IC90: read-out: LUCIFERASE INFECTION ASSAY - IC90.

Where [1] appears, read: read-out: LUCIFERASE INFECTION ASSAY - IC50.

Take `CC(C)c1cccc(Nc2nnc(C(O)c3cccc(N(C)C)c3)s2)c1` (centres undefined): the IC90 – broadly, the point of the concentration-response curve where the effect stands at 90% – is above 10 µM. Besides, where the note is “HEPG2TOX_HILL_SLOPE 0.177, HEPG2TOX_R_SQUARED 0.124, PBLUC_HILL_SLOPE 3.19, PBLUC_R_SQUARED 0.0119, read-out: LUCIFERASE INFECTION ASSAY - IC50”, the half-inhibitory concentration (IC50) (usually the concentration that gives 50% inhibition) is above 10 µM.

For `COc1cccc(-c2cn3c(-c4cccc(O)c4)cnc3cn2)c1F`, the concentration for an effect of 90% (IC90) was found to be 3.69 µM. For the same molecule, the IC50 (PBLUC_HILL_SLOPE 18.9, PBLUC_R_SQUARED 0.523, read-out: LUCIFERASE INFECTION ASSAY - IC50) turned out to be 3.28 µM.

With `Cc1cc(C)c(NC(=O)C(=O)NC(C)C)c(C)c1`, the IC90 was found to be 11 µM. For the same molecule, the IC50 (PBLUC_HILL_SLOPE 3.55, PBLUC_R_SQUARED 0.214, read-out: LUCIFERASE INFECTION ASSAY - IC50) was 5.93 µM.

With `Cc1cc(NC(=O)CCNC(C)c2ccc(CC(C)C)cc2)no1` (centres undefined), the concentration for an effect of 90% (IC90) was above 10 µM. For the same molecule, under setting [1], the IC50 was above 10 µM.

As to `COc1ccc(C(C)(C)C)cc1NC(=O)c1sc2nc3n(c(=O)c2c1C)CCC3`, the IC90 is above 10 µM. In addition, under setting [1], the IC50 is above 10 µM.

On to `Cn1nc(C(C)(C)C)cc1NC(=O)Cc1ccc(-c2ccccc2)cc1`, for which the concentration for an effect of 90% (IC90) was above 10 µM. Besides, the IC50 (HEPG2TOX_HILL_SLOPE 0.763, HEPG2TOX_R_SQUARED 0.965, PBLUC_HILL_SLOPE 1.31, PBLUC_R_SQUARED 0.513, read-out: LUCIFERASE INFECTION ASSAY - IC50) was found to be 2.95 µM.

With `Cc1ccc(Cn2nc(C)c(C(=O)Nc3nc4c(s3)CCCC4)c2Cl)cc1`, the IC90 is above 10 µM. For the same molecule, under “PBLUC_HILL_SLOPE 15.7, PBLUC_R_SQUARED 0.159, read-out: LUCIFERASE INFECTION ASSAY - IC50”, the concentration for half-maximal inhibition (IC50) stood at 9.13 µM.

As for `COc1ccc(C(N)=O)c(OCCOc2ccc(C(C)C)c(C)c2)c1`, the IC90 was above 10 µM. Moreover, the half-inhibitory concentration (IC50) (PBLUC_HILL_SLOPE 1.7, PBLUC_R_SQUARED 0.184, read-out: LUCIFERASE INFECTION ASSAY - IC50) is 4.61 µM.

As to `O=S(=O)(c1ccc(Br)s1)N1CCC(C(c2ccccc2)c2ccccc2)CC1`, the IC90 is above 6.93 µM. Besides, the IC50 under setting [1] is above 6.93 µM.

Turning to `O=C(Nc1nc2ccccn2c1C(=O)NC1CCCCC1)c1c(F)ccc(F)c1F`, the 90% effect concentration (IC90) is above 7.93 µM. Under setting [1], the IC50 is above 7.93 µM.

`Cc1cnc(C(=O)OCC(=O)NCCc2ccccc2)cn1`: the IC90 was above 10 µM. Besides, under setting [1], the concentration for half-maximal inhibition (IC50) is above 10 µM.

`CCCn1c(C)cc(C(=O)COC(=O)C2=COCCO2)c1C`: the concentration for an effect of 90% (IC90) was above 10 µM. For the same molecule, for the setting “FFLUC_HILL_SLOPE 0.919, FFLUC_R_SQUARED 0.757, PBLUC_HILL_SLOPE 0.614, PBLUC_R_SQUARED 0.12, read-out: LUCIFERASE INFECTION ASSAY - IC50”, the half-inhibitory concentration (IC50) amounted to 0.839 µM.

With `CNS(=O)(=O)c1ccc(NC(=O)c2ccc3[nH]c(C)c(C)c3c2)cc1`, the 90% effect concentration (IC90) is above 10 µM. Also, the IC50 under setting [1] was above 10 µM.

For `CCc1cc2c(=O)n(NC(=S)Nc3ccc(OC)cc3)cnc2s1`, the IC90 was above 10 µM. Also, under setting [1], the IC50 is above 10 µM.

With `Cc1ccccc1-c1ccnc2c1c(=O)[nH]c(=O)n2Cc1ccccc1`, the concentration for an effect of 90% (IC90) is above 9.61 µM. For the same molecule, the half-maximal inhibitory concentration (IC50) (PBLUC_HILL_SLOPE 10.5, PBLUC_R_SQUARED 0.045, read-out: LUCIFERASE INFECTION ASSAY - IC50) was above 9.61 µM.

In the case of `N#CC(C(=O)c1cc(S(=O)(=O)N2CCc3ccccc3C2)ccc1Cl)c1ccccn1` (centres undefined), the IC90 turned out to be 3.76 µM. Also, where the note is “PBLUC_HILL_SLOPE 17.6, PBLUC_R_SQUARED 0.387, read-out: LUCIFERASE INFECTION ASSAY - IC50”, the half-inhibitory concentration (IC50) was determined as 3.32 µM.

For the molecule `C/N=c1\scc(-c2ccc(C)c(C)c2)n1/N=C/c1ccc[nH]1`, the 90% effect concentration (IC90) was above 10 µM. The IC50 (FFLUC_HILL_SLOPE 1.19, FFLUC_R_SQUARED 0.95, read-out: LUCIFERASE INFECTION ASSAY - IC50) is above 10 µM.

For `CN1C=C/C(=C/c2ccc3ccccc3[n+]2C)c2ccccc21`, the IC90 was 5.18 µM. In addition, under setting [1], the IC50 is 1.06 µM.

Turning to `Cc1cc(N2CCN(C)CC2)n2ncc(-c3ccccc3Cl)c2n1`, the IC90 is above 9.65 µM. The concentration for half-maximal inhibition (IC50) (PBLUC_HILL_SLOPE 0.809, PBLUC_R_SQUARED 0.766, read-out: LUCIFERASE INFECTION ASSAY - IC50) came out at 1.46 µM.

In the case of `Cc1ccc(NC(=O)c2ccc(S(=O)(=O)N3CCOCC3)o2)cc1Cl`, the IC90 was above 10 µM. In addition, the half-maximal inhibitory concentration (IC50) under setting [1] was above 10 µM.

With `CC(C)n1c(SCC(=O)N(Cc2ccco2)C2=CCCCC2)nc2ccccc2c1=O`, the IC90 amounted to 9.27 µM. For the same molecule, for the setting “FFLUC_HILL_SLOPE 16.9, FFLUC_R_SQUARED 0.338, PBLUC_HILL_SLOPE 11.7, PBLUC_R_SQUARED 0.501, read-out: LUCIFERASE INFECTION ASSAY - IC50”, the IC50 was 7.68 µM.

`COc1cncc(-c2cc3c(cn2)nc(NCCc2cc(OC)ccc2OC)n3C)c1`: the concentration for an effect of 90% (IC90) was found to be 8.42 µM. Also, for the setting “HEPG2TOX_HILL_SLOPE 0.77, HEPG2TOX_R_SQUARED 0.89, PBLUC_HILL_SLOPE 0.989, PBLUC_R_SQUARED 0.368, read-out: LUCIFERASE INFECTION ASSAY - IC50”, the IC50 was determined as 0.913 µM.

Turning to `Cc1nn(-c2ccccc2Cl)c(Cl)c1/C=N/Nc1ccccc1Cl`, the IC90 came to 7.32 µM. Also, the IC50 (PBLUC_HILL_SLOPE 3.24, PBLUC_R_SQUARED 0.794, read-out: LUCIFERASE INFECTION ASSAY - IC50) was 3.72 µM.

For the molecule `O=C(Nc1nc2ccccc2[nH]1)c1cn(Cc2ccccc2)nc1-c1cccnc1`, the 90% effect concentration (IC90) is above 10 µM. Besides, the IC50 (PBLUC_HILL_SLOPE 3.18, PBLUC_R_SQUARED 0.533, read-out: LUCIFERASE INFECTION ASSAY - IC50) is 7.1 µM.

As to `Cc1cc(N2CCN(C)CC2)n2ncc(-c3ccc(F)cc3)c2n1`, the IC90 is above 10.1 µM. Under “PBLUC_HILL_SLOPE 0.664, PBLUC_R_SQUARED 0.928, read-out: LUCIFERASE INFECTION ASSAY - IC50”, the IC50 was determined as 0.571 µM.

`Cc1cc2ncc(-c3ccnc(SCC(=O)Nc4ccc(Cl)cc4Cl)n3)c(C)n2n1`: the IC90 was above 7.18 µM. Moreover, the half-inhibitory concentration (IC50) (PBLUC_HILL_SLOPE 0.44, PBLUC_R_SQUARED 0.0613, read-out: LUCIFERASE INFECTION ASSAY - IC50) is above 7.18 µM.

Regarding `O=S(=O)(c1ccc(Cl)s1)N1CCC(C(c2ccccc2)c2ccccc2)CC1`, the IC90 was above 7.64 µM. Further, under “FFLUC_HILL_SLOPE 0.891, FFLUC_R_SQUARED 0.199, PBLUC_HILL_SLOPE 11.4, PBLUC_R_SQUARED 0.0957, read-out: LUCIFERASE INFECTION ASSAY - IC50”, the IC50 was above 7.64 µM.
